Laboratory results taken from US20250368616A1, “NITROGEN-CONTAINING HETEROCYCLIC DERIVATIVE INHIBITOR, AND PREPARATION METHOD THEREFOR AND USE THEREOF” (SHANGHAI HANSOH BIOMEDICAL CO., LTD., priority 2021, published 2025).

Tested on: Ba/F3 EGFR Del19/C797S cells
Assay: Cell proliferation inhibition assay (Cell Titer-Glo), Ba/F3 EGFR Del19/C797S
Type: cell-based
Details: 72 hours, read-out: Ba/F3 EGFR Del19_C797S IC50
Text: Test Example 2: Cell Proliferation Inhibition Assay
Experimental objective: The objective of this test example is to test the inhibitory activity of compounds on the proliferation of different EGFR C797S drug-resistant mutant cell lines Ba/F3 EGFR Del19/T790M/C797S, Ba/F3 EGFR L858R/T790M/C797S, and Ba/F3 EGFR Del19/C797S.
• Ba/F3 EGFR Del19/T790M/C797S cells were purchased from KYinno Biotechnology Co., Ltd.; • Ba/F3 EGFR Del19/C797S cells were purchased from CoBioer Biosciences Co., Ltd.; • Ba/F3 EGFR L858R/T790M/C797S cells were purchased from CoBioer Biosciences Co., Ltd.; • Cell Titer-Glo was purchased from Promega, with a catalog number of G7573; • RPMI 1640 was purchased from Gibco, with a catalog number of 22400089; • FBS was purchased from Gibco, with a catalog number of 10091148; • cell culture plates were purchased from Corning, with a catalog number of 3610.
The inhibitory activity of the compound on the proliferation of different EGFR C797S drug-resistant mutant cell lines was detected using the Cell Titer-Glo method. The different cell lines were cultured in RPMI 1640 complete culture medium containing 10% FBS under conditions of 37° C. and 5% CO2, the cells were collected by centrifugation when growing to a certain density, and adjusted to appropriate cell density after counting, the cells were spread on a white 96-well plate at 90 μL/well, and cultured in a 37° C., 5% CO2 incubator overnight, prepared compound solutions of different concentrations were added at 10 μL/well, corresponding solvent controls were set, and all wells were cultured in a 37° C., 5% CO2 incubator for 72 hours, 50 μL of CellTiter-Glo solution was added to each well, shook and mixed evenly, and incubated in the dark for 10 minutes, and a BioTek Synergy H1 microplate reader was used for reading.
The luminescence signal value was used to calculate the inhibition rate. Graphpad Prism software was used to fit the concentration and inhibition rate to a nonlinear regression curve, so as to obtain the IC50 value, as shown in Tables 3 and 4 below for details.

| IC50 | Structure (SMILES) |
| --- | --- |
| 60 nM | CC(C)c1ccc(N2C[C@H](CS(C)(=O)=O)[C@H]2C)c2cnc(Nc3ccnc(-c4c[nH]nc4Cl)n3)cc12 [Example 10, N-(2-(3-chloro-1H-pyrazol-4-yl)pyrimidin-4-yl)-5-isopropyl-8-((2R,3S)-2-methyl-3-((methanesulfonyl)methyl)azetidin-1-yl)isoquinolin-3-amine] |
| 41 nM | C=CCn1cc(-c2nccc(Nc3cc4c(C(C)C)ccc(N5C[C@H](CS(C)(=O)=O)[C@H]5C)c4cn3)n2)cn1 [Example 51, N-(2-(1-allyl-1H-pyrazol-4-yl)pyrimidin-4-yl)-5-isopropyl-8-((2R,3S)-2-methyl-3-((methanesulfonyl)methyl)azetidin-1-yl)isoquinolin-3-amine] |
| 49 nM | C#CCn1cc(-c2nccc(Nc3cc4c(C(C)C)ccc(N5C[C@H](CS(C)(=O)=O)[C@H]5C)c4cn3)n2)cn1 [Example 53, 5-isopropyl-8-((2R,3S)-2-methyl-3-((methanesulfonyl)methyl)azetidin-1-yl)-N-(2-(1-(prop-2-yn-1-yl)-1H-pyrazol-4-yl)pyrimidin-4-yl)isoquinolin-3-amine] |
| 25 nM | CC(C)c1ccc(N2C[C@H](CS(C)(=O)=O)[C@H]2C)c2cnc(Nc3ccnc(-c4cn(C)nc4C#N)n3)cc12 [Example 55, 4-(4-((5-isopropyl-8-((2R,3S)-2-methyl-3-((methanesulfonyl)methyl)azetidin-1-yl)isoquinolin-3-yl)amino)pyrimidin-2-yl)-1-methyl-1H-pyrazole-3-carbonitrile] |
| 10 nM | CC(C)c1ccc(N2C[C@H](CS(C)(=O)=O)[C@H]2C)c2cnc(Nc3ccnc(-c4cn(C)nc4C(F)(F)F)n3)cc12 [Example 56, 5-isopropyl-8-((2R,3S)-2-methyl-3-((methanesulfonyl)methyl)azetidin-1-yl)-N-(2-(1-methyl-3-(trifluoromethyl)-1H-pyrazol-4-yl)pyrimidin-4-yl)isoquinolin-3-amine] |
| 26 nM | CCc1nn(C)cc1-c1nccc(Nc2cc3c(C(C)C)ccc(N4C[C@H](CS(C)(=O)=O)[C@H]4C)c3cn2)n1 [Example 57, N-(2-(3-ethyl-1-methyl-1H-pyrazol-4-yl)pyrimidin-4-yl)-5-isopropyl-8-((2R,3S)-2-methyl-3-((methanesulfonyl)methyl)azetidin-1-yl)isoquinolin-3-amine] |
| 52 nM | Cc1nn(CCO)cc1-c1nccc(Nc2cc3c(C(C)C)ccc(N4C[C@H](CS(C)(=O)=O)[C@H]4C)c3cn2)n1 [Example 58, 2-(4-(4-((5-isopropyl-8-((2R,3S)-2-methyl-3-((methanesulfonyl)methyl)azetidin-1-yl)isoquinolin-3-yl)amino)pyrimidin-2-yl)-3-methyl-1H-pyrazol-1-yl)ethan-1-ol] |
| 62 nM | CC(C)c1ccc(N2C[C@H](CS(C)(=O)=O)[C@H]2C)c2cnc(Nc3ccnc(-c4cn(CCO)nc4C(F)(F)F)n3)cc12 [Example 59, 2-(4-(4-((5-isopropyl-8-((2R,3S)-2-methyl-3-((methanesulfonyl)methyl)azetidin-1-yl)isoquinolin-3-yl)amino)pyrimidin-2-yl)-3-(trifluoromethyl)-1H-pyrazol-1-yl)ethan-1-ol] |
| 40 nM | CC(C)c1ccc(N2C[C@H](CS(C)(=O)=O)[C@H]2C)c2cnc(Nc3ccnc(-c4cn(C)nc4F)n3)cc12 [Example 62, N-(2-(3-fluoro-1-methyl-1H-pyrazolyl-4-yl)pyrimidin-4-yl)-5-isopropyl-8-((2R,3S)-2-methyl-3-((methanesulfonyl)methyl)azabut-1-yl)isoquinolin-3-amine] |
| 62 nM | [2H]C([2H])([2H])n1cc(-c2nccc(Nc3cc4c(C(C)C)ccc(N5C[C@H](CS(C)(=O)=O)[C@H]5C)c4cn3)n2)c([N+](=O)[O-])n1 [Example 64, 5-isopropyl-8-((2R,3S)-2-methyl-3-((methanesulfonyl)methyl)azetidin-1-yl)-N-(2-(1-(methyl-d3)-3-nitro-1H-pyrazol-4-yl)pyrimidin-4-yl)isoquinolin-3-amine] |
| 84 nM | [2H]C([2H])([2H])n1cc(-c2nccc(Nc3cc4c(C(C)C)ccc(N5C[C@H](CS(C)(=O)=O)[C@H]5C)c4cn3)n2)c(F)n1 [Example 65, N-(2-(3-fluoro-1-(methyl-d3)-1H-pyrazol-4-yl)pyrimidin-4-yl)-5-isopropyl-8-((2R,3S)-2-methyl-3-((methylsulfonyl)methyl)azabut-1-yl)isoquinolin-3-amine] |

The next lines start with the molecule.

| Structure (SMILES) | IC50 |
| --- | --- |
| CC(C)c1ccc(N2C[C@H](CS(C)(=O)=O)[C@H]2C)c2cnc(Nc3ccnc(-c4cnn(C5CC5(F)F)c4)n3)cc12 (stereo partly drawn) [Example 12, N-(2-(1-(2,2-difluorocyclopropyl)-1H-pyrazol-4-yl)pyrimidin-4-yl)-5-isopropyl-8-((2R,3S)-2-methyl-3-((methanesulfonyl)methyl)azetidin-1-yl)isoquinolin-3-amine] | 56 nM |
| CC(C)c1ccc(N2C[C@H](CS(C)(=O)=O)[C@H]2C)c2cnc(Nc3ccnc(-c4cnn(C5(C#N)CC5)c4)n3)cc12 [Example 13, 1-(4-(4-((5-isopropyl-8-((2R,3S)-2-methyl-3-((methanesulfonyl)methyl)azetidin-1-yl)isoquinolin-3-yl)amino)pyrimidin-2-yl)-1H-pyrazol-1-yl)cyclopropane-1-carbonitrile] | 82 nM |
| CC(C)c1ccc(N2C[C@H](CS(C)(=O)=O)[C@H]2C)c2cnc(Nc3ccnc(-c4cnn([C@@H](C)C(F)(F)F)c4)n3)cc12 [Example 22A, 5-isopropyl-8-((2R,3S)-2-methyl-3-((methanesulfonyl)methyl)azetidin-1-yl)-N-(2-(1-((S)-1,1,1-trifluoropropan-2-yl)-1H-pyrazol-4-yl)pyrimidin-4-yl)isoquinolin-3-amine] | 95 nM |
| CC(C)c1ccc(N2C[C@H](CS(C)(=O)=O)[C@H]2C)c2cnc(Nc3ccnc(-c4cnn(C5(CF)CC5)c4)n3)cc12 [Example 29, N-(2-(1-(1-(fluoromethyl)cyclopropyl)-1H-pyrazol-4-yl)pyrimidin-4-yl)-5-isopropyl-8-((2R,3S)-2-methyl-3-((methanesulfonyl)methyl)azetidin-1-yl)isoquinolin-3-amine] | 64 nM |
| CC(C)c1c(F)cc(N2C[C@H](CS(C)(=O)=O)[C@H]2C)c2cnc(Nc3ccnc(-c4cnn(C)c4)n3)cc12 [Example 39, 6-fluoro-5-isopropyl-N-(2-(1-methyl-1H-pyrazol-4-yl)pyrimidin-4-yl)-8-((2R,3S)-2-methyl-3-((methanesulfonyl)methyl)azetidin-1-yl)isoquinolin-3-amine] | 73 nM |
| CC(C)c1ccc(N2CC(CC#N)C2)c2cnc(Nc3ccnc(-c4cnn(S(=O)(=O)C5CC5)c4)n3)cc12 [Example 40, 2-(1-(3-((2-(1-(cyclopropylsulfonyl)-1H-pyrazol-4-yl)pyrimidin-4-yl)amino)-5-isopropylisoquinolin-8-yl)azetidin-3-yl)acetonitrile] | 70 nM |
| COC1(n2cc(-c3nccc(Nc4cc5c(C(C)C)ccc(N6C[C@H](CS(C)(=O)=O)[C@H]6C)c5cn4)n3)cn2)CC1 [Example 49, 5-isopropyl-N-(2-(1-(1-methoxycyclopropyl)-1H-pyrazol-4-yl)pyrimidin-4-yl)-8-((2R,3S)-2-methyl-3-((methanesulfonyl)methyl)azetidin-1-yl)isoquinolin-3-amine] | 41 nM |
| CC(C)c1ccc(N2C[C@H](CS(C)(=O)=O)[C@H]2C)c2cnc(Nc3ccnc(-c4cnn(C5(CC#N)CC5)c4)n3)cc12 [Example 50, 2-(1-(4-(4-((5-isopropyl-8-((2R,3S)-2-methyl-3-((methanesulfonyl)methyl)azetidin-1-yl)isoquinolin-3-yl)amino)pyrimidin-2-yl)-1H-pyrazol-1-yl)cyclopropyl)acetonitrile] | 51 nM |
| CC#CCn1cc(-c2nccc(Nc3cc4c(C(C)C)ccc(N5C[C@H](CS(C)(=O)=O)[C@H]5C)c4cn3)n2)cn1 [Example 52, N-(2-(1-(but-2-yn-1-yl)-1H-pyrazol-4-yl)pyrimidin-4-yl)-5-isopropyl-8-((2R,3S)-2-methyl-3-((methanesulfonyl)methyl)azetidin-1-yl)isoquinolin-3-amine] | 49 nM |
| Cc1nn(C)cc1-c1nccc(Nc2cc3c(C(C)C)ccc(N4CC(NS(C)(=O)=O)C4)c3cn2)n1 [Example 60, N-(1-(3-((2-(1,3-dimethyl-1H-pyrazol-4-yl)pyrimidin-4-yl)amino)-5-isopropylisoquinolin-8-yl)azetidin-3-yl)methanesulfonamide] | 26 nM |
| CC(C)c1ccc(C2CC(CS(C)(=O)=O)C2)c2cnc(Nc3ccnc(-c4cn(C)nc4Cl)n3)cc12 (stereo not shown) [Example 63, N-(2-(3-chloro-1-methyl-1H-pyrazol-4-yl)pyrimidin-4-yl)-5-isopropyl-8-(3-((methanesulfonyl)methyl)cyclobutyl)isoquinolin-3-amine] | 30 nM |
